In patent publication US4068074A, “Cephalosporin derivatives having at the 3-position of the cephem ring a heterocyclic thiomethyl group with a carboxy or sulfo group and at the 7-position of the cephem ring an α-heterocylic acylaminophenyl-acetamide group” (priority 1974, dated 1978):
In brackets after ≈: the same amount, converted by molar mass. Read-outs that look alike come from different tables or passages of the source.

What was measured:
Shigella sonnei II 37148 = assay: MIC against bacteria (Table I), strain (12); format: cell-based; settings: II37148; (12) Shigella sonnei II 37148; read-out: MIC
Text: (§1) Now, for illustrating the excellent pharmacological effects of the compounds of this invention, the values of MIC (γ/ml.) of the compounds against various bacteria are shown in Table 1, in which the compounds of this invention used are shown by example numbers.

[1] = test system: Staphylococcus Shimanishi; assay: MIC against bacteria (Table I), strain (17); format: cell-based
Text: as §1
(17) Staphylococcus Shimanishi

Salmonella enteritidis = assay: MIC against bacteria (Table I), strain (10); format: cell-based; settings: Salmonella enterica
Text: as §1
(10) Salmonella enteritidis

[2] = Residual antibacterial activity after incubation with 90% plasma (Table 4); format: in vitro ADME, male Sprague-Dowley rat; settings: 90% rat plasma
Protocol: (§2) The relation between the reaction period of time and the antibacterial activity (residual activity, %) when these compounds are incubated with the plasma and the liver homogenate of a male Sprague-Dowley rat is shown in Table 4. The residual antibacterial activity was measured by a thin-layer cup method according to Bacillus subtilis ATCC 6633.
A*Residual activity (%) when incubated with 90% plasma.

[3] = test system: Staphylococcus aureus 209P; assay: MIC against bacteria (Table I), strain (16); format: cell-based
Text: as §1
(16) Staphylococcus aureus 209P

[4] = Residual antibacterial activity after incubation with 10% liver homogenate (Table 4); format: in vitro ADME, male Sprague-Dowley rat; settings: 10% rat liver homogenate
Protocol: as §2
B*Residual activity (%) when incubated with 10% liver homogenate.

Proteus vulgaris 0X 19US = assay: MIC against bacteria (Table I), strain (2); format: cell-based; settings: 0X19US; (2) Proteus vulgaris 0X 19US; read-out: MIC
Text: as §1
(2) Proteus vulgaris 0X 19US

[5] = test system: Psuedomonas ovalis IMA 1002; assay: MIC against bacteria (Table I), strain (6); format: cell-based; settings: (6) Psuedomonas ovalis IMA 1002; read-out: MIC
Text: as §1
(6) Psuedomonas ovalis IMA 1002

[6] = test system: Micrococcus flavus ATCC 10240; assay: MIC against bacteria (Table I), strain (15); format: cell-based; settings: ATCC10240
Text: as §1
(15) Micrococcus flavus ATCC 10240

Staphylococcus Onuma = assay: MIC against bacteria (Table I), strain (18); format: cell-based; settings: (18) Staphylococcus Onuma; read-out: MIC
Text: as §1
(18) Staphylococcus Onuma

[7] = test system: Klebsiella pneumoniae ATCC 10031; assay: MIC against bacteria (Table I), strain (8); format: cell-based; settings: ATCC10031
Text: as §1
(8) Klebsiella pneumoniae ATCC 10031

[8] = test system: Shigella flexneri 2a 1675; assay: MIC against bacteria (Table I), strain (11); format: cell-based; settings: 2A1675; (11) Shigella flexneri 2a 1675; read-out: MIC
Text: as §1

Proteus vulgaris OXK US = assay: MIC against bacteria (Table I), strain (1); format: cell-based; settings: (1) Proteus vulgaris OXK US; read-out: MIC
Text: as §1
(1) Proteus vulgaris OXK US

[9] = test system: Pseudomonas aeruginosa ATCC 8689; assay: MIC against bacteria (Table I), strain (4); format: cell-based; settings: ATCC8689; (4) Pseudomonas aeruginosa ATCC 8689; read-out: MIC
Text: as §1
(4) Pseudomonas aeruginosa ATCC 8689

[10] = test system: Pseudomonas aeruginosa 99 (Gentamycin resistant); assay: MIC against bacteria (Table I), strain (5); format: cell-based; settings: (5) Pseudomonas aeruginosa 99 (Gentamycin resistant); read-out: MIC
Text: as §1
(5) Pseudomonas aeruginosa 99 (Gentamycin resistant)

[11] = test system: Bacillus subtilis ATCC 6633; assay: MIC against bacteria (Table I), strain (14); format: cell-based; settings: ATCC6633; (14) Bacillus subtilis ATCC 6633; read-out: MIC
Text: as §1
(14) Bacillus subtilis ATCC 6633

[12] = test system: Bacillus megatherium 10778; assay: MIC against bacteria (Table I), strain (13); format: cell-based; settings: (13) Bacillus megatherium 10778; read-out: MIC
Text: as §1

[13] = test system: Escherichia coli kauffmann 0-1; assay: MIC against bacteria (Table I), strain (7); format: cell-based; settings: Escherichia coli
Text: as §1
(7) Escherichia coli kauffmann 0-1

[14] = test system: Proteus mirabilis IXM OM-19; assay: MIC against bacteria (Table I), strain (3); format: cell-based; settings: IXMOM19; (3) Proteus mirabilis IXM OM-19; read-out: MIC
Text: as §1
(3) Proteus mirabilis IXM OM-19

Salmonella typhi H901 W = assay: MIC against bacteria (Table I), strain (9); format: cell-based; settings: Salmonella enterica, TYPHI
Text: as §1
(9) Salmonella typhi H901 W

[15] = Solubility of salts in water (Table 2); format: physicochemical; settings: disodium salt, water, showing pH 7.4; read-out: Solubility: disodium salt dissolved in water in an amount of
Text: An advantage of the compounds of this invention is that the salts, for example, sodium salts of these compounds are readily soluble in water at pH of living bodies, which makes them suitable for injections at high concentration. The solubility of these compounds are illustrated in Table 2 together with a control example.

[16] = (17) Staphylococcus Shimanishi, read-out: MIC
[17] = (15) Micrococcus flavus ATCC 10240, read-out: MIC
[18] = (8) Klebsiella pneumoniae ATCC 10031, read-out: MIC
[19] = (10) Salmonella enteritidis, read-out: MIC

| SMILES | MIC (Shigella sonnei II 37148) [µg/mL] | MIC [1, 16] [µg/mL] | MIC ([3]; Staphylococcus aureus, 209P) [µg/mL] | MIC (Proteus vulgaris 0X 19US) [µg/mL] | MIC [5] [µg/mL] | MIC [6, 17] [µg/mL] | MIC (Staphylococcus Onuma) [µg/mL] | MIC [7, 18] [µg/mL] | MIC [8] [µg/mL] | MIC (Proteus vulgaris OXK US) [µg/mL] | MIC [9] [µg/mL] | MIC [10] [µg/mL] | MIC [11] [µg/mL] | MIC [12] [µg/mL] | MIC [13] [µg/mL] | MIC [14] [µg/mL] | MIC (Salmonella typhi H901 W) [µg/mL] | solubility [15] [mg/mL] | MIC (Salmonella enteritidis; [19]) [µg/mL] | other results |
| --- | --- | --- | --- | --- | --- | --- | --- | --- | --- | --- | --- | --- | --- | --- | --- | --- | --- | --- | --- | --- |
| O=C(O)CCc1nnc(SCC2=C(C(=O)O)N3C(=O)[C@@H](NC(=O)[C@H](NC(=O)c4cnccc4O)c4ccccc4)[C@H]3SC2)s1 [Example 6, 7-[D-α-(4-hydroxynicotinoylamido)-α-phenylacetamido]-3-(5-carboxyethyl-1,3,4-thiadiazol-2-yl)thiomethyl-Δ^3-cephem-4-carboxylic acid] | 3.13 (≈ 4.77 µM) | 6.25 (≈ 9.52 µM) | 1.56 (≈ 2.38 µM) | < 0.09 | 6.25 (≈ 9.52 µM) | 6.25 (≈ 9.52 µM) | 12.5 (≈ 19 µM) | 6.25 (≈ 9.52 µM) | 0.78 (≈ 1.19 µM) | < 0.09 | 12.5 (≈ 19 µM) | 6.25 (≈ 9.52 µM) | 0.39 (≈ 0.594 µM) | 0.39 (≈ 0.594 µM) | 3.13 (≈ 4.77 µM) | 0.39 (≈ 0.594 µM) | 1.56 (≈ 2.38 µM) | > 200 |  | MIC (Salmonella enteritidis; ENTERITIDIS): 0.39 µg/mL (≈ 0.594 µM); remaining at 0.25 h ([2]; 90% plasma, 15 minute): 92%; remaining at 0.5 h ([2]; 90% plasma, 30 minute): 102%; remaining at 1.5 h ([2]; 90% plasma, 90 minute): 102%; Residual activity ([2]; 0 minute): 100%; remaining at 0.25 h ([4]; 10% liver homogenate, 15 minute, read-out: Residual activity): 95.7%; remaining at 0.5 h ([4]; 10% liver homogenate, 30 minute, read-out: Residual activity): 89.1%; remaining at 1.5 h ([4]; 10% liver homogenate, 90 minute, read-out: Residual activity): 91.3%; Residual activity ([4]; 0 minute): 100% |
| COc1ccncc1C(=O)N[C@@H](C(=O)N[C@@H]1C(=O)N2C(C(=O)O)=C(CSc3nnc(SCC(=O)O)s3)CS[C@H]12)c1ccccc1 [Example 26, 7-[D-α-(4-methoxynicotinoylamido)-α-phenylacetamido]-3-(5-carboxymethylthio-1,3,4-thiadiazole-2-yl)thiomethyl-Δ^3-cephem-4-carboxylic acid] | 6.25 (≈ 9.07 µM) |  | 1.56 (≈ 2.26 µM) | 0.39 (≈ 0.566 µM) | 25 (≈ 36.3 µM) |  | 12.5 (≈ 18.1 µM) | 12.5 (≈ 18.1 µM) | 3.13 (≈ 4.54 µM) | 0.19 (≈ 0.276 µM) | 12.5 (≈ 18.1 µM) | 12.5 (≈ 18.1 µM) | 0.78 (≈ 1.13 µM) | 0.78 (≈ 1.13 µM) | 6.25 (≈ 9.07 µM) | 0.78 (≈ 1.13 µM) | 6.25 (≈ 9.07 µM) | > 200 | 1.56 (≈ 2.26 µM) | MIC ([1]; Staphylococcus): 6.25 µg/mL (≈ 9.07 µM); MIC ([6]; Micrococcus flavus): 6.25 µg/mL (≈ 9.07 µM) |
| O=C(O)CSc1nsc(SCC2=C(C(=O)O)N3C(=O)[C@@H](NC(=O)[C@H](NC(=O)c4cnccc4O)c4ccccc4)[C@H]3SC2)n1 [Example 13, 7-[D-α-(4-hydroxynicotinoylamido)-α-phenylacetamido]-3-(3-carboxymethylthio-1,2,4-thiadiazol-5yl)thiomethyl-Δ^3 cephem-4-carboxylic acid] | 3.13 (≈ 4.64 µM) | 6.25 (≈ 9.26 µM) |  | 0.78 (≈ 1.16 µM) | 12.5 (≈ 18.5 µM) | 6.25 (≈ 9.26 µM) | 6.25 (≈ 9.26 µM) |  | 1.56 (≈ 2.31 µM) | < 0.09 | 12.5 (≈ 18.5 µM) | 6.25 (≈ 9.26 µM) | 0.39 (≈ 0.578 µM) | 0.39 (≈ 0.578 µM) | 3.13 (≈ 4.64 µM) | 0.39 (≈ 0.578 µM) | 1.56 (≈ 2.31 µM) | > 200 | 0.39 (≈ 0.578 µM) | MIC ([3]; (16) Staphylococcus aureus 209P, read-out: MIC): 0.78 µg/mL (≈ 1.16 µM); MIC ([7]; Klebsiella pneumoniae): 3.13 µg/mL (≈ 4.64 µM) |
